Where a SMILES comes first, the peptide text is derived from it. Bridges are numbered along the chain shown (N, C = ends). [ ]: non-standard residue; d: D form. The star is where a group is joined. Myristoyl = CCCCCCCCCCCCCC(=O)*; S5 = C=CCCC[C@](C)(N)C(=O)O
Columns and labels:
[1] = target: T1, UNC119a (Homo sapiens, UniProt Q13432); experiment: Fluorescence anisotropy binding assay, UNC119a; conditions: 5 nM fluorescein-labeled peptide, 4 h at room temperature, 30 mM Tris pH 7.5, 100 mM NaCl, 1 mM TCEP, 0.01% Chaps, triplicate, error 1 σ
T1 construct: made in house; host or cells: E. coli
Procedure: (§1) Fluorescence anisotropy assay
(§2) UNC119a/b was serially diluted in a buffer containing 30 mM Tris (pH 7.5), 100 mM NaCl, 1 mM TCEP and 0.01% Chaps (assay buffer), treated with 5 nM fluorescein-labeled peptides and incubated for 4 h at room temperature. Binding assays were performed in 384-well, small volume, black flat-bottom, non-binding plates (Greiner). Fluorescence polarization values (λex = 470 nm, λem = 525 nm) were determined using a Safire II plate reader (Tecan) at room temperature. All measurements were performed in triplicates. After correction for changes in fluorescence intensity upon binding, the fluorescence anisotropy data were converted into fraction bound (equation 1) of the FITC- labeled peptide and fitted via non-linear regression in Prism 5.0 (Graphpad).[1] fraction bound = A−Afree (1)
(§3) Afree: anisotropy of free fluorophore
(§4) Abound: anisotropy of bound fluorophore
(§5) Q: change in fluorescence intensity between free and bound state
(§6) Protein expression and purification
(§7) UNC119a and UNC119b were expressed in E. coli according to the previously reported procedures.[2] […]
(§8) Additionally, HeLa cells were supplemented with penicillin and streptomycin. All cultures were routinely tested and found to be free of mycoplasma contamination.

[2] = target: T2, UNC119b (Homo sapiens, UniProt A6NIH7); experiment: Fluorescence anisotropy binding assay, UNC119b; conditions: 5 nM fluorescein-labeled peptide, 4 h at room temperature, 30 mM Tris pH 7.5, 100 mM NaCl, 1 mM TCEP, 0.01% Chaps, triplicate, error 1 σ
T2 construct: made in house; host or cells: E. coli
Procedure: as §1, §2, §3, §4, §5, §6, §7, §8

[3] = system: HeLa cells; experiment: Cellular uptake of fluorescently labeled peptides by flow cytometry; type: cell-based, human; conditions: fluorescently labeled peptide, 5 μM, 90 min, flow cytometry fluorescence intensity, % of levels observed for R8
Procedure: As the knock‐down of UNC119a was reported to increase the number of cytokinetic and binucleated cells,13 we investigated the influence of UNC119‐binding peptides on cell morphology. Initially, the uptake of fluorescently labeled peptide 4 by HeLa cells was investigated by using flow cytometry (c=5 μM for 90 min, Figure S4 and Table S2). These measurements show cellular uptake of 4 reaching about 50 % of the levels observed for cell‐penetrating peptide octa‐arginine (R8).30 Considering that this cellular uptake was sufficient, we tested the effect of unlabeled peptide 4 on cell morphology. As a reference, we used nocodazole (NC), which inhibits tubulin polymerization thereby inducing cell‐cycle arrest in the G2/M phase that results in cells with increased DNA content because chromosomal DNA has already been duplicated. HeLa and mouse fibroblast L cells were incubated with different peptide concentrations for 72 h prior to quantification of DNA content by using flow cytometry.
Supporting Figure S4. Cellular uptake of fluorescently labeled peptides as determined by fluorescence
intensities using flow cytometry in HeLa cells (90 min incubation at c(peptide) = 5 µM).
(1 picture or pasted object on this page, not shown here)

[4] = system: MDA-MB-231 cells; experiment: Total intracellular peptide concentration by quantitative UPLC-MS; type: in vitro ADME; conditions: for Total drug content, pMols/million cells / Total drug content, Measured Conc: 25 µM compound, 0.5 h; for Total drug content, pMols/million cells: total lysis; for Total drug content, pMols/million cells / Total drug content, Measured Conc / Peptide concentration, total cell, 0.5 h: UPLC-MS; for Fold higher total cell uptake than peptide 10: 25 μM, 30 min, quantitative mass spectrometry; for Fold higher total cell uptake than peptide 10 / Peptide concentration, total cell, 0.5 h: MDA-MB-231 cells; for Total drug content, Measured Conc: concentration in re-suspended cell lysate, dilution factor 10; for Peptide concentration, total cell, 0.5 h: unlabeled peptide 25 μM, 0.5 h incubation, RIPA total lysis, LLOQ given if not detected
Procedure: (§9) Total intracellular and sub cellular concentrations
(§10) […] cells were cultured DMEM (high glucose) supplemented with 10% FCS and 1% Glutamax.
(§11) When 80% confluency cell culture media was removed from each flask and new media containing 25 µM of peptides was added and incubated with cells for 30 min and 72 h. Following peptide incubation, cells were washed twice with PBS, trypsinized and pelleted. Pellets where lysed in RIPA buffer (Perkin Elmer) for total […]
(§12) lysis; or CelLytic NuCLEAR Extraction Kit (SIGMA) for subcellular fractionation. Total protein quantification BCA (Pierce) was performed prior to MS analysis to normalize sample data.
(§13) Total and sub-cellular quantities of peptides 4, 10 and R8 were quantified[3] in lysates by UPLC-MS utilising a Waters Xevo TQ-XS (WBA0259) and a Waters Acquity UPLC system consisting of, Sample Manager (M16UFL953M), Acquity PDA (F17UPD457A), Column Oven (E17CMP703G) and Binary Solvent Manager (E17BUR621G). For peptides 4 and 10 analytical UPLC separation was performed using a Waters CSH C18 1.7 µm, 2.1 x 50 mm column. A gradient was utilized of 97% A to 5% in 4mins, 0.5 min hold, 5% A to 97% in 0.5mins, where A = 0.1% HCOOH (aq) and B = 0.1% HCOOH in MeCN at a flow rate of 0.75 mL/min (Supporting Figure S7). Compound R8 was analyzed in HILIC mode using a Waters BEH Amide 1.7 µm, 2.1 x 100 mm column with a gradient of 30% A to 95% in 1.5 mins, 1 min hold, 95% A to 30% in 1.5 min, 1 min hold at 0.65 mL/min. The Waters TQ-XS was operated in +ve ion Electrospray (ESI) mode with the optimized transitions for PC658-AC, PC658-MYR and Ac-R8 (Supporting Table S3 and Figure S8). The chromatograms at each transition were extracted, smoothed and integrated to give the standard curve. Chromatograms of the samples were treated similarly and by linear regression (1/x) an in-cell concentration was established in the re-suspended cell lysate using the Waters MassLynx TargetLynxTM product (Supporting Tables S4 – S7).

[5] = system: MDA-MB-231 cells; experiment: Subcellular (nucleus, cytosol) peptide concentration by quantitative UPLC-MS; type: in vitro ADME; conditions: for Peptide concentration, cytosol, 0.5 h / Peptide concentration, nucleus, 0.5 h / Peptide concentration, cytosol, 72 h / Peptide concentration, nucleus, 72 h: unlabeled peptide 25 μM, MDA-MB-231 cells, subcellular fractionation, LLOQ given if not detected; for Peptide concentration, cytosol, 0.5 h / Peptide concentration, nucleus, 0.5 h: 0.5 h incubation; for Peptide concentration, cytosol, 72 h / Peptide concentration, nucleus, 72 h: 72 h incubation
Procedure: as §9, §10, §11, §12, §13

[6] = system: HeLa cells; experiment: Fluorescence microscopy of cell morphology (tubulin antibody, DAPI); type: cell-based, human; conditions: 1 μM, 24 h, fixation, anti-tubulin antibody and DAPI staining
Procedure: 2x10^4 Hela cells were seeded per well in a 24-well plate on cover slips and incubated overnight. Next day, cells were treated with different concentrations of the peptides or DMSO, nocodazole and cytochalasin D as controls and incubated at 37°C and 5% CO2 for the indicated times (72 h or 24 h). Cells were then fixed using 3.7% paraformaldehyde for 15 min at room temperature followed by permeabilization using 0.1% Triton X-100 in PBS for 15 min. Blocking was performed in 2% BSA in PBS containing 0.1% Tween 20 for 1 h at room temperature. Samples were incubated with the indicated primary antibodies (anti-tubulin primary antibody conjugated to FITC) in the blocking solution overnight at 4°C. After washing, cells were incubated with 1 µg/mL DAPI in blocking solution for 1 h at room temperature, followed by three washes with PBS.

[7] = system: HeLa cells; experiment: DNA content (4N) by propidium iodide staining and flow cytometry, HeLa cells; type: cell-based, human; conditions: control compound 1 µM (maximum tolerated concentration), 24 h, flow cytometry, triplicate, error 1 σ
Procedure: (§14) 3 x10^4 L or Hela cells were seeded per well in 6–well plates and grown overnight. The following day, cells were treated with the indicated compound concentrations for 72 h or with nocodazole as a control for 24 h). Cells were washed, detached using trypsin and re-suspended in phosphate-buffered saline (PBS).
(§15) Cells were centrifuged at 200xg for 5 min at room temperature (RT) and washed again. Cells were then fixed with 70% ethanol and stained with propidium iodide solution (12 µg/mL propidium iodide (Sigma, Germany), 0.1% (v/v) Triton X-100 and 100 µg/mL DNase-free RNase A (Sigma, Germany) in PBS) for 30 min at room temperature. Cell suspensions were filtered to FACS tubes through a nylon mesh before analysis.
(§16) 10,000 cells for each sample were sorted by the BD LSRII analyzer (Becton Dickinson, USA). FlowJo 6.2.1 software was used for quantification and analysis of all data. For every analysis, FSC and SSC (forward and side scatter, respectively) gating was performed to exclude doublets and debris. In addition, cells were gated for singlets (PI-W vs. PI-A). […]

[8] = system: mouse fibroblast L cells; experiment: DNA content (4N) by propidium iodide staining and flow cytometry, L cells; type: cell-based; conditions: control compound 1 µM (maximum tolerated concentration), 24 h, flow cytometry, triplicate, error 1 σ
Procedure: as §14, §15, §16

[9] = 25 µM compound, 0.5 h, concentration in lysate
[10] = 25 µM compound, 72 h, concentration in lysate

T2 sequence (A6NIH7 whole entry, species assumed): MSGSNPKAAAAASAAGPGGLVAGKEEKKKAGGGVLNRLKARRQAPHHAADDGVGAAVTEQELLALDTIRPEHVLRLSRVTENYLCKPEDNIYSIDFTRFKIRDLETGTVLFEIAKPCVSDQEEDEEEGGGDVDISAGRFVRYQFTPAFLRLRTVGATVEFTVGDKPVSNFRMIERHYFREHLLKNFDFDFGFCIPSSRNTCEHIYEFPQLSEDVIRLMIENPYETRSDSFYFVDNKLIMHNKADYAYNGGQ

| Kd [1] [nM] | Kd [2] [nM] | Total drug content, pMols/million cells [4] [pMols/million cells] | Fold higher total cell uptake than peptide 10 [4] | Total drug content, Measured Conc [4] [nM] | Peptide concentration, total cell, 0.5 h [4] [pmol per 10^6 cells] | Peptide concentration, cytosol, 0.5 h [5] [pmol per 10^6 cells] | Peptide concentration, nucleus, 0.5 h [5] [pmol per 10^6 cells] | Peptide concentration, cytosol, 72 h [5] [pmol per 10^6 cells] | Peptide concentration, nucleus, 72 h [5] [pmol per 10^6 cells] | SMILES | other results |
| --- | --- | --- | --- | --- | --- | --- | --- | --- | --- | --- | --- |
| 7.4 | 11.2 |  |  |  |  |  |  |  |  | CCCCCCCCCCCCCC(=O)NCC(=O)N[C@@H](C)C(=O)NCC(=O)N[C@@H](C)C(=O)N[C@@H](CO)C(=O)N[C@@H](C)C(=O)N[C@@H](CCC(=O)O)C(=O)N[C@@H](CCC(=O)O)C(=O)N[C@@H](CCCCN)C(=O)N[C@@H](Cc1c[nH]cn1)C(=O)N[C@@H](CCCCN)C(N)=O [Peptide 1] (Myristoyl-GAGASAEEKHK-NH2) |  |
| 5.5 | 63.2 ± 14 | 59.9 | more than 100 fold | 155 | 60 | <0.001 | 0.22 | 0.01 | 0.45 | CCCCCCCCCCCCCC(=O)NCC(=O)N[C@@H](C)C(=O)NCC(=O)N[C@@H](C)C(=O)N[C@@H](CO)C(=O)N[C@@]1(C)CCCC=CCCC[C@@](C)(C(=O)N[C@@H](CCCCN)C(N)=O)NC(=O)[C@H](CCCCN)NC(=O)[C@H](CCC(=O)O)NC(=O)[C@H](CCC(=O)O)NC1=O [Peptide 4] (Myristoyl-GAGAS[S5]EEK[S5]K-NH2; staple 6-10) | Cellular uptake relative to octa-arginine (R8) [3]: about 50% |
|  |  | 51.7 | more than 100 fold | 108 | 52 | 0.58 | 0.56 | 0.65 | 0.64 | CC(=O)N[C@@H](CCCNC(=N)N)C(=O)N[C@@H](CCCNC(=N)N)C(=O)N[C@@H](CCCNC(=N)N)C(=O)N[C@@H](CCCNC(=N)N)C(=O)N[C@@H](CCCNC(=N)N)C(=O)N[C@@H](CCCNC(=N)N)C(=O)N[C@@H](CCCNC(=N)N)C(=O)N[C@@H](CCCNC(=N)N)C(N)=O [R8] | Sub-cellular drug content, pMols/million cells, Cytoplasm, 0.5 h ([5]; 25 µM compound, 0.5 h): 0.584 pMols/million cells; Sub-cellular drug content, pMols/million cells, Nuclear, 0.5 h ([5]; 25 µM compound, 0.5 h): 0.563 pMols/million cells; Sub-cellular drug content, Measured Conc, Cytoplasm, 0.5 h [5, 9]: 3.59 nM; Sub-cellular drug content, Measured Conc, Nuclear, 0.5 h [5, 9]: 6.91 nM; Sub-cellular drug content, pMols/million cells, Cytoplasm, 72 h ([5]; 25 µM compound, 72 h): 0.651 pMols/million cells; Sub-cellular drug content, pMols/million cells, Nuclear, 72 h ([5]; 25 µM compound, 72 h): 0.638 pMols/million cells; Sub-cellular drug content, Measured Conc, Cytoplasm, 72 h [5, 10]: 2.92 nM; Sub-cellular drug content, Measured Conc, Nuclear, 72 h [5, 10]: 5.73 nM |
|  |  |  |  |  |  |  |  |  |  | COC(=O)Nc1nc2ccc(C(=O)c3cccs3)cc2[nH]1 [nocodazole] | Effect on HeLa cell morphology [6]: deformation of the tubulin network; DNA-content 4N, HeLa cells [7]: 68.6 ±4.2%; DNA-content 4N, HeLa cells ([7]; listed as NC): increased numbers of cells with doubled DNA content; DNA-content 4N, L cells [8]: 75.4 ± 15.0%; DNA-content 4N, L cells ([8]; listed as NC): increased numbers of cells with doubled DNA content |

Source: article PMC6973269, “Lipidated Stapled Peptides Targeting the Acyl Binding Protein UNC119” (Chembiochem, 2019)
